Reference: US20240158446A1, “CYCLIC COMPOUND HAVING SELECTIVE INHIBITORY ACTION ON KRAS OVER HRAS AND NRAS” (CHUGAI SEIYAKU KABUSHIKI KAISHA, priority 2021, published 2024)

Legend:
[1] = target: GDP-bound NRAS wild-type protein (Homo sapiens, UniProt P01111); test: Binding to NRAS by surface plasmon resonance (SPR), Single Cycle Kinetics; conditions: SPR, GDP-bound NRAS wild-type protein vs GDP-bound KRAS wild-type protein
[2] = target: GDP-bound HRAS wild-type protein (Homo sapiens, UniProt P01112); test: Binding to HRAS by surface plasmon resonance (SPR), Single Cycle Kinetics; conditions: SPR, GDP-bound HRAS wild-type protein vs GDP-bound KRAS wild-type protein
[3] = target: GDP-bound KRAS wild-type protein (Homo sapiens, UniProt P01116); test: Binding to KRAS by surface plasmon resonance (SPR), Single Cycle Kinetics; conditions: SPR, Single Cycle Kinetics, GDP-bound KRAS wild-type protein; read-out: KRAS KD
GDP-bound KRAS wild-type protein, sequence (P01116 whole entry): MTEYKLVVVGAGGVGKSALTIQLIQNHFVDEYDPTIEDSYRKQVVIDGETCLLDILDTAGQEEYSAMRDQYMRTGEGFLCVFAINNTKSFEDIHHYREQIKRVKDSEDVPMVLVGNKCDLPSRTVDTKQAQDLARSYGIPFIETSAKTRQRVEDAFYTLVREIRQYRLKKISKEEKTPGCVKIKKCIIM

GDP-bound NRAS wild-type protein, sequence (P01111 whole entry): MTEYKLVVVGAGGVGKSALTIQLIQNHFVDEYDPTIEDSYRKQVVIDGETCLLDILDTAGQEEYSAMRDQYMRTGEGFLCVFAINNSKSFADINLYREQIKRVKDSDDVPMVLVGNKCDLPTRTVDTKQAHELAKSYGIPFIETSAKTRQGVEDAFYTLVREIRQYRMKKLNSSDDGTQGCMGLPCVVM
GDP-bound HRAS wild-type protein, sequence (P01112 whole entry): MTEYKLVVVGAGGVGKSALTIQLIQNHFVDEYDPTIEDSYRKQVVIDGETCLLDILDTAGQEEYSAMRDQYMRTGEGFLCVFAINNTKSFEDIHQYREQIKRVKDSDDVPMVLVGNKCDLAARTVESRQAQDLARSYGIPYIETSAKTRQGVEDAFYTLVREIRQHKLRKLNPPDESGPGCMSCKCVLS

SMILES | Kd [3] [nM] | NRAS/KRAS (ratio of KD value for NRAS to KD value for KRAS) [1] | HRAS/KRAS (ratio of KD value for HRAS to KD value for KRAS) [2]
CC[C@H](C)[C@@H]1NC(=O)[C@H](CC(C)C)N(C)C(=O)C[C@@H](C(=O)N2CCOCC2)N(C)C(=O)[C@H](C2CCCC2)N(C)C(=O)C2(CCC2)NC(=O)[C@@H]2C[C@@H](O)CN2C(=O)[C@H](CCc2cc(F)c(C(F)(F)F)c(F)c2)NC(=O)CN(C)C(=O)[C@H](Cc2ccc(C(F)(F)F)cc2)N2CCCC[C@@H](C2=O)N(C)C(=O)CN(C)C1=O [PP0868] | 0.053 | C (A compound having a KD ratio of 0.1 or more and less than 3 is denoted as C) | B (a compound having 3 or more and less than 10 is denoted as B)
CC[C@H](C)[C@@H]1NC(=O)[C@H](CC(C)C)N(C)C(=O)C[C@@H](C(=O)N2CCOCC2)N(C)C(=O)[C@H](C2CCCC2)N(C)C(=O)C2(CCC2)NC(=O)[C@@H]2[C@@H](O)CCN2C(=O)[C@H](CCc2cc(F)c(C(F)(F)F)c(F)c2)NC(=O)CN(C)C(=O)[C@H](Cc2ccc(C(F)(F)F)cc2)N2CCCC[C@@H](C2=O)N(C)C(=O)CN(C)C1=O [PP0869] | 0.056 | B (a compound having 3 or more and less than 10 is denoted as B) | B (a compound having 3 or more and less than 10 is denoted as B)
CC[C@H](C)[C@@H]1NC(=O)[C@H](CC(C)C)N(C)C(=O)C[C@@H](C(=O)N2CCOCC2)N(C)C(=O)[C@H](C2CCCC2)N(C)C(=O)C2(CCC2)NC(=O)[C@@H]2[C@H](O)CCN2C(=O)[C@H](CCc2cc(F)c(C(F)(F)F)c(F)c2)NC(=O)CN(C)C(=O)[C@H](Cc2ccc(C(F)(F)F)cc2)N2CCCC[C@@H](C2=O)N(C)C(=O)CN(C)C1=O [PP0870] | 0.057 | B (a compound having 3 or more and less than 10 is denoted as B) | B (a compound having 3 or more and less than 10 is denoted as B)
C=CC[C@H]1C(=O)N[C@@H]([C@@H](C)CC)C(=O)N(C)CC(=O)N(C)[C@H]2CCCCN(C2=O)[C@@H](Cc2ccc(C(F)(F)F)cc2)C(=O)N(C)CC(=O)N[C@@H](CCc2cc(F)c(C(F)(F)F)c(F)c2)C(=O)N2C[C@H](OCC)C[C@H]2C(=O)N[C@](C)(CC=C)C(=O)N(C)[C@@H](C2CCCC2)C(=O)N(C)[C@H](C(=O)N2CCOCC2)CC(=O)N1C [PP0874] | 0.1 | C (A compound having a KD ratio of 0.1 or more and less than 3 is denoted as C) | B (a compound having 3 or more and less than 10 is denoted as B)
C=CCC[C@H]1C(=O)N[C@@H]([C@@H](C)CC)C(=O)N(C)CC(=O)N(C)[C@H]2CCCCN(C2=O)[C@@H](Cc2ccc(C(F)(F)F)cc2)C(=O)N(C)CC(=O)N[C@@H](CCc2cc(F)c(C(F)(F)F)c(F)c2)C(=O)N2C[C@H](OCC)C[C@H]2C(=O)N[C@](C)(CC=C)C(=O)N(C)[C@@H](C2CCCC2)C(=O)N(C)[C@H](C(=O)N2CCOCC2)CC(=O)N1C [PP0875] | 0.096 | C (A compound having a KD ratio of 0.1 or more and less than 3 is denoted as C) | B (a compound having 3 or more and less than 10 is denoted as B)
C=CCCC[C@H]1C(=O)N[C@@H]([C@@H](C)CC)C(=O)N(C)CC(=O)N(C)[C@H]2CCCCN(C2=O)[C@@H](Cc2ccc(C(F)(F)F)cc2)C(=O)N(C)CC(=O)N[C@@H](CCc2cc(F)c(C(F)(F)F)c(F)c2)C(=O)N2C[C@H](OCC)C[C@H]2C(=O)N[C@](C)(CC=C)C(=O)N(C)[C@@H](C2CCCC2)C(=O)N(C)[C@H](C(=O)N2CCOCC2)CC(=O)N1C [PP0876] | 0.4 | C (A compound having a KD ratio of 0.1 or more and less than 3 is denoted as C) | C (A compound having a KD ratio of 0.1 or more and less than 3 is denoted as C)
C=CCCCC[C@H]1C(=O)N[C@@H]([C@@H](C)CC)C(=O)N(C)CC(=O)N(C)[C@H]2CCCCN(C2=O)[C@@H](Cc2ccc(C(F)(F)F)cc2)C(=O)N(C)CC(=O)N[C@@H](CCc2cc(F)c(C(F)(F)F)c(F)c2)C(=O)N2C[C@H](OCC)C[C@H]2C(=O)N[C@](C)(CC=C)C(=O)N(C)[C@@H](C2CCCC2)C(=O)N(C)[C@H](C(=O)N2CCOCC2)CC(=O)N1C [PP0877] | 0.21 | C (A compound having a KD ratio of 0.1 or more and less than 3 is denoted as C) | B (a compound having 3 or more and less than 10 is denoted as B)

The next lines start with results.

Kd [3] [nM] | SMILES | NRAS/KRAS (ratio of KD value for NRAS to KD value for KRAS) [1] | HRAS/KRAS (ratio of KD value for HRAS to KD value for KRAS) [2]
3.2 | C=CC[C@H]1C(=O)N[C@@H]([C@@H](C)CC)C(=O)N(C)CC(=O)N(C)[C@H]2CCCCCN(C2=O)[C@@H](Cc2ccc(C(F)(F)F)cc2)C(=O)N(C)CC(=O)N[C@@H](CCc2cc(F)c(C(F)(F)F)c(F)c2)C(=O)N2C[C@H](OCC)C[C@H]2C(=O)N[C@](C)(CC=C)C(=O)N(C)[C@@H](C2CCCC2)C(=O)N(C)[C@H](C(=O)N2CCOCC2)CC(=O)N1C [PP0878] | B (a compound having 3 or more and less than 10 is denoted as B) | B (a compound having 3 or more and less than 10 is denoted as B)
0.02 | CCO[C@@H]1C[C@H]2C(=O)NC3(CCC3)C(=O)N(C)[C@@H](C3CCCC3)C(=O)N(C)[C@H](C(=O)N(C)C)CC(=O)N(C)[C@@H](CC)C(=O)N[C@@H]([C@@H](C)CC)C(=O)N(C)CC(=O)N(C)[C@H]3CCCCN(C3=O)[C@@H](Cc3ccc(C(F)(F)F)cc3)C(=O)N(C)CC(=O)N[C@@H](CCc3ccc(C(F)(F)F)c(C)c3)C(=O)N2C1 [PP0882] | C (A compound having a KD ratio of 0.1 or more and less than 3 is denoted as C) | B (a compound having 3 or more and less than 10 is denoted as B)
0.022 | CCO[C@@H]1C[C@H]2C(=O)NC3(CCC3)C(=O)N(C)[C@@H](C3CCCC3)C(=O)N(C)[C@H](C(=O)N(C)C)CC(=O)N(C)[C@@H](CC)C(=O)N[C@@H]([C@@H](C)CC)C(=O)N(C)CC(=O)N(C)[C@H]3CCCCN(C3=O)[C@@H](Cc3ccc(C(F)(F)F)cc3)C(=O)N(C)CC(=O)N[C@@H](CCc3ccc(C(F)(F)F)c(OC)c3)C(=O)N2C1 [PP0884] | C (A compound having a KD ratio of 0.1 or more and less than 3 is denoted as C) | C (A compound having a KD ratio of 0.1 or more and less than 3 is denoted as C)
0.098 | CCO[C@@H]1C[C@H]2C(=O)NC3(CCC3)C(=O)N(C)[C@@H](C3CCCC3)C(=O)N(C)[C@H](C(=O)N(C)C)CC(=O)N(C)[C@@H](CC)C(=O)N[C@@H]([C@@H](C)CC)C(=O)N(C)CC(=O)N(C)[C@H]3CCCCN(C3=O)[C@@H](Cc3ccc(C(F)(F)F)cc3)C(=O)N(C)CC(=O)N[C@@H](CCc3ccc(C(F)(F)F)cc3F)C(=O)N2C1 [PP0885] | C (A compound having a KD ratio of 0.1 or more and less than 3 is denoted as C) | B (a compound having 3 or more and less than 10 is denoted as B)
0.086 | CCO[C@@H]1C[C@H]2C(=O)NC3(CCC3)C(=O)N(C)[C@@H](C3CCCC3)C(=O)N(C)[C@H](C(=O)N(C)C)CC(=O)N(C)[C@@H](CC)C(=O)N[C@@H]([C@@H](C)CC)C(=O)N(C)CC(=O)N(C)[C@H]3CCCCN(C3=O)[C@@H](Cc3ccc(C(F)(F)F)cc3)C(=O)N(C)CC(=O)N[C@@H](CCc3c(F)c(F)c(C(F)(F)F)c(F)c3F)C(=O)N2C1 [PP0886] | C (A compound having a KD ratio of 0.1 or more and less than 3 is denoted as C) | B (a compound having 3 or more and less than 10 is denoted as B)
0.093 | CCO[C@@H]1C[C@H]2C(=O)NC3(CCC3)C(=O)N(C)[C@@H](C3CCCC3)C(=O)N(C)[C@H](C(=O)N(C)C)CC(=O)N(C)[C@@H](CC)C(=O)N[C@@H]([C@@H](C)CC)C(=O)N(C)CC(=O)N(C)[C@H]3CCCCN(C3=O)[C@@H](Cc3ccc(C(F)(F)F)cc3)C(=O)N(C)CC(=O)N[C@@H](CCc3ccc4sccc4c3)C(=O)N2C1 [PP0887] | C (A compound having a KD ratio of 0.1 or more and less than 3 is denoted as C) | C (A compound having a KD ratio of 0.1 or more and less than 3 is denoted as C)
0.62 | CCO[C@@H]1C[C@H]2C(=O)NC3(CCC3)C(=O)N(C)[C@@H](C3CCCC3)C(=O)N(C)[C@H](C(=O)N(C)C)CC(=O)N(C)[C@@H](CC)C(=O)N[C@@H]([C@@H](C)CC)C(=O)N(C)CC(=O)N(C)[C@H]3CCCCCN(C3=O)[C@@H](Cc3ccc(C(F)(F)F)cc3)C(=O)N(C)CC(=O)N[C@@H](CCc3c(F)c(F)c(C(F)(F)F)c(F)c3F)C(=O)N2C1 [PP0891] | B (a compound having 3 or more and less than 10 is denoted as B) | B (a compound having 3 or more and less than 10 is denoted as B)
0.0072 | CCCN1C(=O)CN(C)C(=O)CN(C)C(=O)[C@H]([C@@H](C)CC)NC(=O)[C@@H]2CCCCCOc3ccc(cc3)C[C@H]1C(=O)N(C)CC(=O)N[C@@H](CCc1cc(F)c(C(F)(F)F)c(F)c1)C(=O)N1C[C@H](OCC)C[C@H]1C(=O)NC1(CCCC1)C(=O)N(C)[C@@H](C1CCCC1)C(=O)N(C)[C@H](C(=O)N(C)C)CC(=O)N2C [PP0895] | C (A compound having a KD ratio of 0.1 or more and less than 3 is denoted as C) | C (A compound having a KD ratio of 0.1 or more and less than 3 is denoted as C)
